Measurements reported in patent US20150031668A1, “CHROMAN DERIVATIVES AS TRPM8 INHIBITORS” (AMGEN INC., priority 2013, published 2015).
pIC50: −log10 of the molar value.

Target: T1, human TRPM8 (Homo sapiens, UniProt Q7Z2W7)
T1 construct: expressed in transfected cells; host or cells: Chinese hamster ovary (CHO) cells, T-REx tetracycline-inducible expression system (Invitrogen); co-transfected with pcDNA3.1 aequorin
Assay: Luminescence readout assay for measuring intracellular calcium (aequorin, CHO cells expressing human TRPM8; icilin, L-menthol or cold activation)
Format: cell-based
Conditions: CHO cells expressing human TRPM8, icilin activation (1 μM), aequorin luminescence; read-out: hTRPM8 IC50
In short: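 Activation was by 1 μM icilin, 100 μM L-menthol (test compound 2.5 min ahead) or cold buffer below 10° C (compound 1 min ahead). Calcium rise measured as aequorin luminescence in CHO cells with tetracycline-inducible human TRPM8.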

T1 sequence (Q7Z2W7 whole entry): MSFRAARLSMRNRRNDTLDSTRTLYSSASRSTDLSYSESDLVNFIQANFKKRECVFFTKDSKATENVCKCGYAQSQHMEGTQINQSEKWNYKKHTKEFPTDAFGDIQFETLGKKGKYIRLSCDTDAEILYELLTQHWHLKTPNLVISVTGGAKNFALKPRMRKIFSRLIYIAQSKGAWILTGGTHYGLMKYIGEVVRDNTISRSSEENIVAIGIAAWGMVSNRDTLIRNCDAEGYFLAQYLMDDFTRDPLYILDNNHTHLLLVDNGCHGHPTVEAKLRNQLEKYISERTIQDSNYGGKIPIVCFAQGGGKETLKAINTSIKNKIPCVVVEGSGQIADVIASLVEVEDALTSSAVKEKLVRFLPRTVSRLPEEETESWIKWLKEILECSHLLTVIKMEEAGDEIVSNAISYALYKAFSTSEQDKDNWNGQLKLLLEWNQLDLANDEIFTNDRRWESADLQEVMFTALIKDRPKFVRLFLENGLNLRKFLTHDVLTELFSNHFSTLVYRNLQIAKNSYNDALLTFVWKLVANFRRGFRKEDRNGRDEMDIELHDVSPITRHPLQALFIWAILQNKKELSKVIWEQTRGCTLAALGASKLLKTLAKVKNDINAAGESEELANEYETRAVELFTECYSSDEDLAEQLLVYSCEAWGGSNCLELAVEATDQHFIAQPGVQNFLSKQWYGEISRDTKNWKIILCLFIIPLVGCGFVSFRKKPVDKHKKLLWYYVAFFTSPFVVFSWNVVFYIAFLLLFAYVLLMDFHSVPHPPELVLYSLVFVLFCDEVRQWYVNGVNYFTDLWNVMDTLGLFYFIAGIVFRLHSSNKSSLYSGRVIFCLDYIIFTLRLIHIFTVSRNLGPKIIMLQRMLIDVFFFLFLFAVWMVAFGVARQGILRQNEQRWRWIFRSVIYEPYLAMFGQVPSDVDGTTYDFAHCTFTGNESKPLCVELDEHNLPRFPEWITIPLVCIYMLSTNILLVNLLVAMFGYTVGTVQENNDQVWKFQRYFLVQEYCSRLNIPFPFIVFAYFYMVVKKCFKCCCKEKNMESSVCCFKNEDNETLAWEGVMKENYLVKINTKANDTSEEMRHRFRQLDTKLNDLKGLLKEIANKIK

pIC50	SMILES
7.07	O=C(N[C@]1(c2ccc(OC(F)(F)F)c(F)c2)CCOc2cccnc21)c1ccc(C(=O)O)c(-c2ccccc2)c1 [Example 290, (S)-5-((4-(3-fluoro-4-(trifluoromethoxy)phenyl)-3,4-dihydro-2H-pyrano[3,2-b]pyridin-4-yl)carbamoyl)-[1,1′-biphenyl]-2-carboxylic acid]
7.85	CC(C)c1cc(C(=O)N[C@]2(c3ccc(OC(F)(F)F)c(F)c3)CCOc3cccnc32)ccc1C(=O)O [Example 292, (S)-4-((4-(3-fluoro-4-(trifluoromethoxy)phenyl)-3,4-dihydro-2H-pyrano[3,2-b]pyridin-4-yl)carbamoyl)-2-isopropylbenzoic acid]
8.15	CC(C)Cc1cc(C(=O)N[C@]2(c3ccc(OC(F)(F)F)c(F)c3)CCOc3cccnc32)ccc1C(=O)O [Example 293, (S)-4-((4-(3-fluoro-4-(trifluoromethoxy)phenyl)-3,4-dihydro-2H-pyrano[3,2-b]pyridin-4-yl)carbamoyl)-2-isobutylbenzoic acid]
8.52	CNc1cc(C(=O)N[C@]2(c3ccc(OC(F)(F)F)c(F)c3)CCOc3cccnc32)ccc1C(=O)O [Example 294, (S)-4-((4-(3-fluoro-4-(trifluoromethoxy)phenyl)-3,4-dihydro-2H-pyrano[3,2-b]pyridin-4-yl)carbamoyl)-2-(methylamino)benzoic acid]
7.82	COC(=O)c1ccc(C(=O)N[C@]2(c3ccc(OC(F)(F)F)c(F)c3)CCOc3cccnc32)cc1NC(C)=O [Example 295, (S)-methyl 2-acetamido-4-((4-(3-fluoro-4-(trifluoromethoxy)phenyl)-3,4-dihydro-2H-pyrano[3,2-b]pyridin-4-yl)carbamoyl)benzoate]
8.10	CNC(=O)c1ccc(C(=O)N[C@]2(c3ccc(OC(F)(F)F)c(F)c3)CCOc3cccnc32)cc1C [Example 296, (S)—N4-(4-(3-fluoro-4-(trifluoromethoxy)phenyl)-3,4-dihydro-2H-pyrano[3,2-b]pyridin-4-yl)-N1,2-dimethylterephthalamide]
7.59	Cc1cc(C(=O)N[C@]2(c3ccc(OC(F)(F)F)c(F)c3)CCOc3cccnc32)ccc1C(=O)NC(C)(C)C [Example 297, (S)—N1-(tert-butyl)-N4-(4-(3-fluoro-4-(trifluoromethoxy)phenyl)-3,4-dihydro-2H-pyrano[3,2-b]pyridin-4-yl)-2-methylterephthalamide]
7.64	O=C(N[C@]1(c2ccc(OC(F)(F)F)c(F)c2)CCOc2cccnc21)c1ccc(C(=O)O)c(O)c1 [Example 298, (S)-4-((4-(3-fluoro-4-(trifluoromethoxy)phenyl)-3,4-dihydro-2H-pyrano[3,2-b]pyridin-4-yl)carbamoyl)-2-hydroxybenzoic acid]
6.94	Cn1cc(C(=O)N[C@]2(c3ccc(OC(F)(F)F)c(F)c3)CCOc3cccnc32)cc1C(=O)O [Example 299, (S)-4-((4-(3-fluoro-4-(trifluoromethoxy)phenyl)-3,4-dihydro-2H-pyrano[3,2-b]pyridin-4-yl)carbamoyl)-1-methyl-1H-pyrrole-2-carboxylic acid]
7.92	O=C(N[C@]1(c2ccc(OC(F)(F)F)c(F)c2)CCOc2cccnc21)c1ccc(C(=O)O)c(C2CC2)c1 [Example 300, (S)-2-cyclopropyl-4-((4-(3-fluoro-4-(trifluoromethoxy)phenyl)-3,4-dihydro-2H-pyrano[3,2-b]pyridin-4-yl)carbamoyl)benzoic acid]
6.58	Cc1[nH]c(C(=O)N[C@]2(c3ccc(OC(F)(F)F)c(F)c3)CCOc3cccnc32)cc1C(=O)O [Example 301]
8.40	O=C(N[C@]1(c2ccc(OC(F)(F)F)c(F)c2)CCOc2cccnc21)c1ccc(C(=O)O)c(NC2CC2)c1 [Example 302, (S)-2-(cyclopropylamino)-4-((4-(3-fluoro-4-(trifluoromethoxy)phenyl)-3,4-dihydro-2H-pyrano[3,2-b]pyridin-4-yl)carbamoyl)benzoic acid]
7.55	Cc1c(C(=O)O)cc(C(=O)N[C@]2(c3ccc(OC(F)(F)F)c(F)c3)CCOc3cccnc32)n1C [Example 303]
